Test results reported in patent publication US20190128870A1, “Diagnostic Methods For Patient Specific Therapeutic Decision Making In Cancer Care” (Humeltis, priority 2016, published 2019).

Key:
glioblastoma tumour = test: Treatment of the glioblastoma patient; assay type: in vivo, human
Method: The patient was treated with BCNU and the tumour was regressing within 2 weeks after the first administration of the drug.

[1] = test system: Glioblastoma multiforme 3D aggregates; test: CellTiter-Glo 3D Cell Viability Assay, glioblastoma drug sensitivity test; assay type: cell-based, human; settings: BCNU 0.3, 0.03, 0.003 mg/ml, FIGS. 3 & 4
Method: Toxicology assay: CellTiter-Glo® 3D Cell Viability Assay (Promega). The CellTiter-Glo® 3D Cell Viability Assay is a homogeneous, luminescent method to determine the number of viable cells in 3D cell culture based on quantitation of the ATP present, which is a marker for the presence of metabolically active cells.
Aggregates were prepared in 96-well plates and cultures were incubated with the following agents: cisplatin, erlotinib, vinorelbine, and pemetrexed. […] Following 24, 48 h or 72 h incubation, cells were labelled using Annexin V-PI and analyzed by flow cytometry or analysed by Promega CellTiter-Glo® 3D Cell Viability Assay Kit (Luminescent) (ATP detection kit)(FIGS. 3 & 4).

[2] = test system: Glioblastoma multiforme 3D aggregates (Glioblastoma 1); test: Annexin V-PI flow cytometry of drug-treated Glioblastoma 1 3D aggregates; assay type: cell-based, human
Method: Two, freshly resected, native samples reached the laboratory directly from the pathologist within 2 hours of surgery. The two samples were treated separately and were labelled as “Glioblastoma 1” and “Glioblastoma 2”. […] The samples were processed according to protocol and drug sensitivity tests were performed using the viable, Sample 1. Samples for DNA and RNA isolation were also stored at −80° C., leaving the opportunity open for additional sequencing or comparative gene expression studies. Traditional out-growth cultures were also prepared from Glioblastoma sample 1 showing the strong viability and proliferative ability of the cells (FIG. 1.). Annexin: Annexin V is used as a non-quantitative probe to detect cells that express phosphatidylserine (PS) on their cell surface, an event found in apoptosis as well as other forms of cell death. The assay combines annexin V staining of PS and PE membrane events with the staining of DNA in the cell nucleus with propidium iodide (PI) or 7-Aminoactinomycin D (AAD-7), distinguishing viable cells from apoptotic cells and necrotic cells. Detection was performed by flow cytometry or a fluorescence microscope. […] Erbitux (Cetuximab): 4.8 mg/ml; […] Erlotinib similarly to Cetuximab is an EGFR inhibitor (the two drugs are frequently used clinically together).

## O=NN(CCCl)C(=O)NCCCl [BCNU, Carmustine]
Glioblastoma tumour
  time to tumour regressing after the first administration of the drug: ≤ 2 weeks
[1]
  sensitivity of the glioblastoma cells: clearly confirmed sensitivity

## N.N.[Cl][Pt][Cl] [Cisplatin]
[2]; 9 μg/m1
  Annexin Pl++ Late apoptosis: 0.19%
  Pl+ ratio within Annexin+ Non-viable: 0.44%

## C#Cc1cccc(Nc2ncnc3cc(OCCOC)c(OCCOC)cc23)c1 [Erlotinib]
[2]; 1 μM
  Annexin Pl++ Late apoptosis: 0.32%
  Pl+ ratio within Annexin+ Non-viable: 0.62%

## Nc1nc2[nH]cc(CCc3ccc(C(=O)N[C@@H](CCC(=O)O)C(=O)O)cc3)c2c(=O)[nH]1 [Pemetrexed]
[2]; 1 μM
  Annexin Pl++ Late apoptosis: 0.19%
  Pl+ ratio within Annexin+ Non-viable: 0.37%

## CCC1=C[C@@H]2CN(C1)Cc1c([nH]c3ccccc13)[C@@](C(=O)OC)(c1cc3c(cc1OC)N(C)[C@H]1[C@@](O)(C(=O)OC)[C@H](OC(C)=O)[C@]4(CC)C=CCN5CC[C@]31[C@@H]54)C2 [Vinorelbine]
[2]; 20 nM
  Annexin Pl++ Late apoptosis: 0.49%
  Pl+ ratio within Annexin+ Non-viable: 0.93%
[2]; 50 nM
  Annexin Pl++ Late apoptosis: 0.05%
  Pl+ ratio within Annexin+ Non-viable: 0.09%
